# Data from patent US9101638B2, “Boronic acid derivatives and therapeutic uses thereof” (Rempex Pharmaceuticals, Inc., priority 2013, dated 2015).
# Key:
# PAM1154/KPC-2 = assay: Biapenem potentiation in PAM1154/KPC-2 (MexAB-OprM lacking); format: cell-based, Pseudomonas aeruginosa; conditions: Pseudomonas aeruginosa
# Method: (§1) Efflux of BLIs from Pseudomonas aeruginosa by the MexAB-OprM efflux pump was also evaluated. […] Due to expression of KPC-2 both strains became resistant to biapenem. […] Potency of BLIs to potentiate biapenem in these strains was determined. […] The ratio of MPC64 values for each BLI in PAM1032/KPC-2 (efflux proficient) and PAM1154/KPC-2 (efflux deficient) was determined to generate the Efflux Index (EI).
# PAM1032/KPC-2 = assay: Biapenem potentiation in PAM1032/KPC-2 (MexAB-OprM overexpressed); format: cell-based, Pseudomonas aeruginosa; conditions: Pseudomonas aeruginosa
# Method: as §1
# KP1004 (KPC-2) = assay: Potentiation of biapenem, strain KP1004; format: cell-based; conditions: strain KP1004 KPC-2, biapenem alone
# Method: (§2) Biapenem was present in the test medium at 1 μg/mL. […] Table 3 summarizes the BLI potency of biapenem potentiation (MPC@1) for two strains overexpressing class A (KPC) and class D (OXA-48) carbapenemases. Biapenem MIC for each strain is also shown.
# KP1086 (OXA-48) = assay: Potentiation of biapenem, strain KP1086; format: cell-based; conditions: strain KP1086 OXA-48, biapenem alone
# Method: as §2
# Chymotrypsin = biological target: T1, Chymotrypsin (Bos taurus, UniProt P00766); assay: Serine protease inhibition: chymotrypsin; format: biochemical, mammalian
# T1 construct: purchased Calbiochem 230832
# Method: (§3) The effect of selected BLIs on the enzymatic activity of some common mammalian serine proteases was evaluated.
# (§4) 50 μl of the diluted enzyme was mixed with 50 μl of inhibitor at various concentrations and 50 μl of corresponding buffer (Table 7). Reaction mixtures were incubated for 10 min at 37° C. Subsequently, 50 μl of corresponding substrate (Table 7) was added and absorbance or fluorescence was monitored for 30 min on SpectraMax M2 plate reader (Molecular Devices). 4-(2-Aminoethyl)benzenesulfonyl fluoride hydrochloride (AEBSF) and leupeptin were used as positive controls. Rates of reaction were calculated and presented relative to “no treatment” control.
# Neutrophil elastase = biological target: T2, Neutrophil elastase (Homo sapiens, UniProt P08246); assay: Serine protease inhibition: neutrophil elastase; format: biochemical, mammalian; conditions: Table 8B; read-out: IC50 Neutrophil elastase
# T2 construct: purchased Calbiochem 324681
# T2 sequence (P08246 30-267): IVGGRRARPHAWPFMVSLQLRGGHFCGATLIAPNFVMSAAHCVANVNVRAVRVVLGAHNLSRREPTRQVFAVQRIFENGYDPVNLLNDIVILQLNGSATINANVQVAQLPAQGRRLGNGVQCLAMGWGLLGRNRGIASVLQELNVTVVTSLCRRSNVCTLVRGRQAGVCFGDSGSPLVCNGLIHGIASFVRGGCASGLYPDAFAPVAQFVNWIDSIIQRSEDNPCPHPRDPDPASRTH
# Method: as §3, §4
# Urokinase = biological target: T3, Urokinase (Homo sapiens, UniProt P00749); assay: Serine protease inhibition: urokinase; format: biochemical, mammalian; conditions: Table 8A, positive controls, numeric; read-out: IC50 Urokinase
# T3 construct: purchased Calbiochem 672112
# Method: as §3, §4
# [1] = biological target: T4, Dipeptidyl peptidase 8 (DPP8) (Homo sapiens, UniProt Q6V1X1); assay: Serine protease inhibition: DPP8; format: biochemical, mammalian
# T4 construct: purchased BPS Bioscience 80080
# T4 sequence (Q6V1X1 whole entry): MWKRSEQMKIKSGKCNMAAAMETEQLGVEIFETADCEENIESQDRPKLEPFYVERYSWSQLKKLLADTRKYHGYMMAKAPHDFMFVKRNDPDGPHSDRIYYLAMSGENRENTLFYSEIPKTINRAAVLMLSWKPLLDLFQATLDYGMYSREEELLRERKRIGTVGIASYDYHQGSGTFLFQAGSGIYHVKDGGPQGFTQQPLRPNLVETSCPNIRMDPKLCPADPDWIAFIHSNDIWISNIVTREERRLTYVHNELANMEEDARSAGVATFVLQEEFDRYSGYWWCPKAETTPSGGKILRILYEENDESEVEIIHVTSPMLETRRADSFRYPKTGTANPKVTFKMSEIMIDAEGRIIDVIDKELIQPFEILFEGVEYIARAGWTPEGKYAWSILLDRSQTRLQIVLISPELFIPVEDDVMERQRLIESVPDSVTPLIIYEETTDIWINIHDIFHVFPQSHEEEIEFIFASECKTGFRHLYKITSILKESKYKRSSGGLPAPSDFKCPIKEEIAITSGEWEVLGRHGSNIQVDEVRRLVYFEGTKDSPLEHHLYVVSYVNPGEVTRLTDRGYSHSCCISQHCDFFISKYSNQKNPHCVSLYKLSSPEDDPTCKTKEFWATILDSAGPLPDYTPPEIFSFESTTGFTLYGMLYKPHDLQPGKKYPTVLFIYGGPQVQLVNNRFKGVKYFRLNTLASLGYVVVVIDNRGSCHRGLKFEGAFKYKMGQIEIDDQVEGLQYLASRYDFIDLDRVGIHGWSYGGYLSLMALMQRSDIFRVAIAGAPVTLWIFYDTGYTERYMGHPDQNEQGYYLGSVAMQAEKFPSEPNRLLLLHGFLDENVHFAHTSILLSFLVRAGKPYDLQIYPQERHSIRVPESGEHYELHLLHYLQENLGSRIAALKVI
# Method: as §3, §4
# [2] = biological target: T5, Dipeptidyl peptidase 9 (DPP9) (Homo sapiens, UniProt Q86TI2); assay: Serine protease inhibition: DPP9; format: biochemical, mammalian
# T5 construct: purchased BPS Bioscience 80090
# T5 sequence (Q86TI2 whole entry): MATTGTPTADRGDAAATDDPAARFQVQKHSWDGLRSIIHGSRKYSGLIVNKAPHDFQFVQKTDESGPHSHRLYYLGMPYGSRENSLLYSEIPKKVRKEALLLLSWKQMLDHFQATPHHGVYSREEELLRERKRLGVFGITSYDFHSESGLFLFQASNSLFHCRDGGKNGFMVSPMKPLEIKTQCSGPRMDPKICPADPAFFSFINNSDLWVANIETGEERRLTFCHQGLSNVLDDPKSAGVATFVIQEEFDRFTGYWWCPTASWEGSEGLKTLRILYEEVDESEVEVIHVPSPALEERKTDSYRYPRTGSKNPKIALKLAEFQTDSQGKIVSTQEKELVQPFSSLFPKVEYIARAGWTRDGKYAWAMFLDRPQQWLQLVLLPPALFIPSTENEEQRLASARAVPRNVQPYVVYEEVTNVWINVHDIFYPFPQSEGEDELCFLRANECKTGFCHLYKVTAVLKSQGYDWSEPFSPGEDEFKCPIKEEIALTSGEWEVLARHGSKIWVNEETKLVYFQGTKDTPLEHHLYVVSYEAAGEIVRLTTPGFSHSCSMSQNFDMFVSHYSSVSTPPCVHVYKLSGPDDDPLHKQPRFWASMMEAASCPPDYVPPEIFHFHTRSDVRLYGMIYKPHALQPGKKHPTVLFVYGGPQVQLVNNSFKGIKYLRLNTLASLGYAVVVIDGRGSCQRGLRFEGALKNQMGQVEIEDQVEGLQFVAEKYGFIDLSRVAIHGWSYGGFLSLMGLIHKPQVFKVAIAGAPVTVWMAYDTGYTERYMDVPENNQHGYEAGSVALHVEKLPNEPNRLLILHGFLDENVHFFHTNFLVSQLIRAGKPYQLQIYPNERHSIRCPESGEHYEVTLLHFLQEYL
# Method: as §3, §4
# Trypsin = biological target: T6, Trypsin (Bos taurus, UniProt P00760); assay: Serine protease inhibition: trypsin; format: biochemical, mammalian
# T6 construct: purchased Calbiochem 6502
# T6 sequence (P00760 24-246): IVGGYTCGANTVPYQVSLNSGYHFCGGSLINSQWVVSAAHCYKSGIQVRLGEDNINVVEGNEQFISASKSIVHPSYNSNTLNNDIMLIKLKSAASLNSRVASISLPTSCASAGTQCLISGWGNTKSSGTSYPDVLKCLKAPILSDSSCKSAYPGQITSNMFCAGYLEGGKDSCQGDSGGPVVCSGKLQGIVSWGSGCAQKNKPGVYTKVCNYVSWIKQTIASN
# Method: as §3, §4
# [3] = biological target: T7, Dipeptidyl peptidase 7 (DPP7) (Homo sapiens, UniProt Q9UHL4); assay: Serine protease inhibition: DPP7; format: biochemical, mammalian
# T7 construct: purchased R&D Systems 3438-SE
# Method: as §3, §4
# CathepsinA = biological target: T8, CathepsinA (Homo sapiens, UniProt P10619); assay: Serine protease inhibition: cathepsin A; format: biochemical, mammalian
# T8 construct: purchased R&D Systems 1049-SE
# T8 sequence (P10619 29-480): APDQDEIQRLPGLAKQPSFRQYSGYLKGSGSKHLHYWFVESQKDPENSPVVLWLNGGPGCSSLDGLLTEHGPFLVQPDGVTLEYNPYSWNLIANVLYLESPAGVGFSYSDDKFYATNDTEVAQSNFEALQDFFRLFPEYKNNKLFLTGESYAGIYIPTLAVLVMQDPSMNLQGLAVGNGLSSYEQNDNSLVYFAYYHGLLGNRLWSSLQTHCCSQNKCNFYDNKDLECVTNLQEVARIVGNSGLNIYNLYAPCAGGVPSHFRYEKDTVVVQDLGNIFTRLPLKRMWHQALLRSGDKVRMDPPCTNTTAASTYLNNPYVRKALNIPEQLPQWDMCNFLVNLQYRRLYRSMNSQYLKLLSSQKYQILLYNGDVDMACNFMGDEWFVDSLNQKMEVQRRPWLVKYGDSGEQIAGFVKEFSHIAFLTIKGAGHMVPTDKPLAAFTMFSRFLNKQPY
# Method: as §3, §4
# Plasmin = biological target: T9, Plasmin (Homo sapiens, UniProt P00747); assay: Serine protease inhibition: plasmin; format: biochemical, mammalian
# T9 construct: Plasmin; MPBio; 19419890; purchased MPBio 19419890
# T9 sequence (P00747 581-810 limits assumed, species assumed): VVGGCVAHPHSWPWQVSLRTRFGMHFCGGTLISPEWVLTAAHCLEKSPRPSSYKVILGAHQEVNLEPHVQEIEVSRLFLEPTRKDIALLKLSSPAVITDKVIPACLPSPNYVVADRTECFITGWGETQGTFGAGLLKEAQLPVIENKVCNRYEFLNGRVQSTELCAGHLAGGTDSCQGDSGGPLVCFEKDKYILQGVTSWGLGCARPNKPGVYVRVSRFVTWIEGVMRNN
# T9 sequence (P00747 97-580 partner limits assumed, species assumed): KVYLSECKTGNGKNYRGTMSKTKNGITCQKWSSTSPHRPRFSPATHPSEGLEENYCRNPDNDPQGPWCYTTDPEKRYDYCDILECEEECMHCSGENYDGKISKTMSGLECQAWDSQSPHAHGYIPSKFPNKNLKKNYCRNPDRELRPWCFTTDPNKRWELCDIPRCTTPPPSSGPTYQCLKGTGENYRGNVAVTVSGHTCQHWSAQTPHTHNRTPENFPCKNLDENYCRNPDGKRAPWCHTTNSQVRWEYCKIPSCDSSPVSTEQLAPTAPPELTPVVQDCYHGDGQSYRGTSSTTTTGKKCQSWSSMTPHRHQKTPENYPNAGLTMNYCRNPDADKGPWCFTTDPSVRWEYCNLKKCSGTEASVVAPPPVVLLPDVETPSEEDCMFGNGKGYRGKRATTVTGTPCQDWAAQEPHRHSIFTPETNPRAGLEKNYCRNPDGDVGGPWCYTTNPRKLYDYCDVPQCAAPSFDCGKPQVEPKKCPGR
# Method: as §3, §4
# Elastase = biological target: T10, Elastase (Sus scrofa, UniProt P00772); assay: Serine protease inhibition: elastase; format: biochemical, mammalian
# T10 construct: purchased Calbiochem 324682
# T10 sequence (P00772 27-266): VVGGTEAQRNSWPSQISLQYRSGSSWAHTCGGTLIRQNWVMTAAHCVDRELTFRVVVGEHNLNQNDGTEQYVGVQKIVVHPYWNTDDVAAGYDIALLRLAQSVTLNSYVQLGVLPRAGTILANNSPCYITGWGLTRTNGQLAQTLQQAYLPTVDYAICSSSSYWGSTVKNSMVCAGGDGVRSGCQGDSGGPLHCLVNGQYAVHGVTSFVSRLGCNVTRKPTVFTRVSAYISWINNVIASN
# Method: as §3, §4
# Chymase = biological target: T11, Chymase (Homo sapiens, UniProt P23946); assay: Serine protease inhibition: chymase; format: biochemical, mammalian; conditions: Table 8A, positive controls, numeric; read-out: IC50 Chymase
# T11 construct: purchased Enzo Lifescience BML-SE281
# T11 sequence (P23946 22-247): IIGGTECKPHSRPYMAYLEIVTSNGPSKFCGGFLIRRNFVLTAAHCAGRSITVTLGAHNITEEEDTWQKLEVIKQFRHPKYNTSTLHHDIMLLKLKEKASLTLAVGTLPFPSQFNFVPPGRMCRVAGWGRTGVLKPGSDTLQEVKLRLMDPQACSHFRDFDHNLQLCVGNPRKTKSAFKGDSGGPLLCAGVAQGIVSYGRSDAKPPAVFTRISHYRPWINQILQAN
# Method: as §3, §4
# HtrA2 = biological target: T12, HtrA2 (Homo sapiens, UniProt O43464); assay: Serine protease inhibition: HtrA2; format: biochemical, mammalian
# T12 sequence (O43464 134-458): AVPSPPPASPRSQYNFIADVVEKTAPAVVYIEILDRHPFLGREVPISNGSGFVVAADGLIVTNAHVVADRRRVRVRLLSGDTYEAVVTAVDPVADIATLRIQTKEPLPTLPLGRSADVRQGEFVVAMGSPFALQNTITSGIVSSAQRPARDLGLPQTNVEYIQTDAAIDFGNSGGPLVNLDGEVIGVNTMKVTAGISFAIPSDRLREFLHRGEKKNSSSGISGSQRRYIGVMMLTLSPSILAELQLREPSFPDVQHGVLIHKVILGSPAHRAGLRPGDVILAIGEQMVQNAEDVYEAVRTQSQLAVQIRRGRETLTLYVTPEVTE
# Method: as §3, §4
# Thrombin = biological target: T13, Thrombin (Homo sapiens, UniProt P00734); assay: Serine protease inhibition: thrombin; format: biochemical, mammalian; conditions: Table 8A, positive controls, numeric; read-out: IC50 Thrombin
# T13 construct: Thrombin; MPBio; 19491880; purchased MPBio 19491880
# Method: as §3, §4
Compound,MIC (PAM1154/KPC-2),MIC (PAM1032/KPC-2),MIC (KP1004 (KPC-2)),MIC (KP1086 (OXA-48)),IC50 (Chymotrypsin),IC50 (Neutrophil elastase),IC50 (Urokinase),IC50 [1],IC50 [2],IC50 (Trypsin),IC50 [3],IC50 (CathepsinA),IC50 (Plasmin),IC50 (Elastase),IC50 (Chymase),IC50 (HtrA2),IC50 (Thrombin)
"C[C@@H](O)[C@H]1C(=O)N2C(C(=O)[O-])=C(SC3Cn4cnc[n+]4C3)[C@H](C)[C@H]12 (some centres unmarked) [Biapenem, reference compound]",32 µg/mL,32 µg/mL,32 µg/mL,16 µg/mL,–,–,–,–,–,–,–,–,–,–,–,–,–
"CC(=O)N[C@@H](CC(C)C)C(=O)N[C@@H](CC(C)C)C(=O)N[C@H](C=O)CCCNC(=N)N [Leupeptin, leupeptin, reference compound]",–,–,–,–,> 200 µM,15 to 500 µM,22 µM,15 to 500 µM,15 to 500 µM,< 0.27 µM,15 to 500 µM,15 to 500 µM,5 µM,> 200 µM,> 200 µM,> 500 µM,15 µM
